# Measured values published in PMC5657151 (Pediatric blood & cancer, 2017).
# Entries after “also recorded” stand apart in the source; their conditions may differ. Like-named read-outs stand apart in the source and are kept apart here.
# How the values were obtained:
# [1] = design: species or system human; settings: in vivo
# [2] = type: in vivo, human; settings: for AUC(0-t) / Cmax: median (range)
# [3] = test system: relapsed or refractory solid tumors; assay: Pediatric phase 1 trial: tumor response; type: in vivo, human
# [4] = adults, PO bid, ref [6], [60]–[62], cited from earlier work
smiles,measurement,setting,value
O=C1NC(=O)[C@@H](c2cn3c4c(cccc24)CCC3)[C@@H]1c1c[nH]c2ccccc12 [Tivantinib],"Anemia, maximum Gr. 1 (number of patients)",[1]; human,4
same,Grade 1 or 2 anemia (number),[1]; human,12
same,Grade 1 or 2 fatigue (number),[1]; human,8
same,Grade 1 or 2 hypoalbuminemia (number),[1]; human,4
same,Grade 1 or 2 leukopenia (number),[1]; human,5
same,Grade 1 or 2 lymphopenia (number),[1]; human,8
same,Grade 1 or 2 nausea (number),[1]; human,5
same,Grade 1 or 2 neutropenia (number),[1]; human,5
same,Grade 1 or 2 thrombocytopenia (number),[1]; human,3
same,Grade 1 or 2 vomiting (number),[1]; human,5
same,"Hemoglobin increased, maximum Gr. 1 (number of patients)",[1]; human,1
same,"Lymphocyte count decreased, maximum Gr. 1 (number of patients)",[1]; human,2
same,"Lymphocyte count decreased, maximum Gr. 2 (number of patients)",[1]; human,2
same,"Lymphocyte count increased, maximum Gr. 2 (number of patients)",[1]; human,1
same,"Neutrophil count decreased, maximum Gr. 2 (number of patients)",[1]; human,2
same,"Platelet count decreased, maximum Gr. 1 (number of patients)",[1]; human,2
same,"White blood cell decreased, maximum Gr. 1 (number of patients)",[1]; human,3
same,grade 3 anemia (number),[1]; human,1
same,grade 3 lymphopenia (number),[1]; human,2
same,recommended phase 2 dose (RP2D),[1]; human,240 mg/m^2/dose
same,"Anemia, maximum Gr. 1 (number of patients)","[1]; human, 1 cycle",9
same,"Anemia, maximum Gr. 2 (number of patients)","[1]; human, 1 cycle",3
same,"Anemia, maximum Gr. 3 (number of patients)","[1]; human, 1 cycle",1
same,"Fatigue, maximum Gr. 1 (number of patients)","[1]; human, 1 cycle",5
same,"Fatigue, maximum Gr. 2 (number of patients)","[1]; human, 1 cycle",3
same,"Hypoalbuminemia, maximum Gr. 1 (number of patients)","[1]; human, 1 cycle",2
same,"Hypoalbuminemia, maximum Gr. 2 (number of patients)","[1]; human, 1 cycle",2
same,"Lymphocyte count decreased, maximum Gr. 1 (number of patients)","[1]; human, 1 cycle",3
same,"Lymphocyte count decreased, maximum Gr. 2 (number of patients)","[1]; human, 1 cycle",5
same,"Lymphocyte count decreased, maximum Gr. 3 (number of patients)","[1]; human, 1 cycle",2
same,"Nausea, maximum Gr. 1 (number of patients)","[1]; human, 1 cycle",4
same,"Nausea, maximum Gr. 2 (number of patients)","[1]; human, 1 cycle",1
same,"Neutrophil count decreased, maximum Gr. 1 (number of patients)","[1]; human, 1 cycle",3
same,"Neutrophil count decreased, maximum Gr. 2 (number of patients)","[1]; human, 1 cycle",2
same,"Platelet count decreased, maximum Gr. 1 (number of patients)","[1]; human, 1 cycle",3
same,"Vomiting, maximum Gr. 1 (number of patients)","[1]; human, 1 cycle",4
same,"Vomiting, maximum Gr. 2 (number of patients)","[1]; human, 1 cycle",1
same,"White blood cell decreased, maximum Gr. 1 (number of patients)","[1]; human, 1 cycle",5
same,"White blood cell decreased, maximum Gr. 2 (number of patients)","[1]; human, 1 cycle",2
same,Sinus bradycardia,[1],not readily apparent
same,tolerability,[1],well tolerated
same,"Tmax, median (range)","[2]; Powder sprinkled on food, 240 mg/m^2 (n=9), Day 1 Cycle 1",2.0 (1.0–6.0) h
same,inter-patient variability in Cmax and AUC0–8h,[2]; across all dose levels,20 fold
same,AUC(0-t),"[2]; human, plasma, oral, 170 mg/m2, AUC0–8h, Capsule, 170 mg/m^2 (n=6), Day 1 Cycle 1, with food",3820 ng·h/mL
same,Tmax,"[2]; human, plasma, oral, 200 mg/m2",4 h
same,AUC(0-t),"[2]; human, plasma, oral, 200 mg/m2, AUC0–8h, Capsule, 200 mg/m^2 (n=7), Day 1 Cycle 1, with food",9470 ng·h/mL
same,Cmax,"[2]; human, plasma, oral, 200 mg/m2, Cmax, Capsule, 200 mg/m^2 (n=7), Day 1 Cycle 1, with food",2180 ng/mL
same,Tmax,"[2]; human, plasma, oral, 240 mg/m2",2 h
same,AUC(0-t),"[2]; human, plasma, oral, 240 mg/m2, AUC0–8h, Capsule, 240 mg/m^2 (n=13), Day 1 Cycle 1, with food",5630 ng·h/mL
same,AUC(0-t),"[2]; human, plasma, oral, 240 mg/m2, AUC0–8h, Powder sprinkled on food, 240 mg/m^2 (n=9), Day 1 Cycle 1",7300 ng·h/mL
same,Cmax,"[2]; human, plasma, oral, 240 mg/m2, Cmax, Capsule, 240 mg/m^2 (n=13), Day 1 Cycle 1, with food",1300 ng/mL
same,Cmax,"[2]; human, plasma, oral, 240 mg/m2, Cmax, Powder sprinkled on food, 240 mg/m^2 (n=9), Day 1 Cycle 1",1530 ng/mL
same,half-life,"[2]; human, plasma, oral, apparent elimination half-life, median, evaluable in 29 of 35 patients, range 1.2 – 18.0 hrs",2.7 h
same,Tmax,"[2]; human, plasma, po",~2 h
same,objective responses,"[3]; 32 patients evaluable for response, single agent",not observed; also recorded: no objective responses
same,duration of stable disease,"[3]; patient with neuroblastoma, 28-day cycles",8 cycles
same,maximum tolerated dose (MTD),[4]; amorphous form (approximately 170 mg/m^2/dose),300 mg
same,maximum tolerated dose (MTD),[4]; crystalline form (approximately 210 mg/m^2/dose),360 mg
